In patent US20060084599A1, “Compositions, methods and kits relating to notch signaling” (Maine Medical Center, priority 2003, published 2006):

Assays:
[1] = system: NIH 3T3 stable transfectants; test: FGF1-induced spheroid formation; assay type: cell-based, murine
Protocol: Clonal populations of NIH 3T3 stable transfectants were resuspended and grown in media containing 10% BCS, 10% BCS containing 1 μM PD166866, 10% BCS containing 10 ng/ml recombinant human FGF1 and 10 U/ml heparin or 10% BCS containing 10 ng/ml recombinant human FGF 1, 10 U/ml heparin and 1 μM PD 166866 as indicated in the figure legend. Approximately 2×10^5 cells were plated per well (6-well dish) and three days after plating, phase-contrast micrographs of the cells were taken.

[2] = system: NIH 3T3 cell transfectants; test: Colony formation in soft agar (anchorage-independent growth); assay type: cell-based, murine
Protocol: Clonal populations of NIH 3T3 cells stably transfected with vector control, soluble Jagged1 (sJ1), constitutively active Notch1 (caN1), constitutively active Notch 2 (caN2), dominant negative Notch 1 (dnN1), dominant negative Notch 2 (dnN2), an oncogenic mutant of FGF1 engineered with the FGF4 signal peptide sequence (hst-β (FGF4):FGF1), or constitutively active oncogenic Ras construct (caRas), were plated on 6 cm tissue culture dishes with 0.5% agar in an overlay containing DMEM (Gibco BRL) media, 10% bovine calf serum (BCS; Hyclone), and 0.33% agar at 1.5×10^3 cells/dish. As indicated, some dishes were also treated with 1 μM of the FGFR1-specific inhibitor, PD166866 (Panek et al., 1998, J. Pharmacol. Exp. Ther. 286: 569-577) and/or 10 ng/ml recombinant human FGF1 and 10 U/ml heparin (Sigma). Cells were fed with 0.5 ml of media with or without FGF1 and/or the FGFR1-specific inhibitor every 3 days as indicated. Twenty days after plating, colonies were stained with p-iodonitrotetrazolium violet (Sigma) for visualization. Quantitation of colony formation was achieved by counting all p-iodonitrotetrazolium violet-stained colonies consisting of more than 4 cells under a Zeiss Stemi SVII Apo dissecting microscope.
Anchorage-Dependent and -Independent Cell Growth Assays. Approximately 3×10^4 cells were plated on fibronectin (10 μg/cm^2)-coated in 12-well cell culture dishes (Falcon) in DMEM containing 10% BCS (v/v) (Hyclone). Three wells of the individual NIH 3T3 cell transfectants were harvested every third day and cell number was quantitated using a hemocytometer. Anchorage-independent cell growth was evaluated by plating in duplicate approximately 1.7×10^3 cells in DMEM containing 0.5% (w/v) agar (Sigma) 10% (v/v) BCS into 5 cm plastic dishes (Falcon) as previously described (Small et al., 2003, J. Biol. Chem. 278:16405-16413).

[3] = system: Jagged1; test: Jagged1 expression by immunoblot; assay type: cell-based, murine; conditions: 10 ng/ml FGF1 and 10 U/ml heparin in growth media
Protocol: Vector control, SJ1, CaN1, J1, Hstβ(FGF4):FGF1 and sJ1:caN1 stable NIH 3T3 cell transfectants were plated on tissue culture dishes in either normal growth media (DMEM (Gibco BRL) media, 10% bovine calf serum (BCS; Hyclone)) or normal growth media containing 10 ng/ml recombinant FGF1 and 10 U/mi heparin. Cells were harvested at confluency (based on status of vector control cells grown in normal growth media).
Because hst-β(FGF4):FGF1 stable transfectants and the sJ1 transfectants grown in FGF 1-containing media form spheroids, all cells were harvested by scraping in the presence of the growth media dn then the cells/growth media was collected into sterile 15 ml conical tubes. Cells were pelleted by centrifugation at 800×g for 5′ at 4° C. After centrifugation, the supernatant was removed and the cell pellets were washed 3× with 1×PBS. Cells were lysed in 500 μl in 20 mM tris, pH 7.5 containing 300 mM sucrose, 60 mM KCl, 15 mM NaCl, 0.5 mM EDTA, 0.5% (v/v) Triton X-100 1 mM Phenymethyl sulfonyl flouride, 0.1% SDS, 2 μg/ml aprotinin, […], 10 μg/ml leupeptin, and 1 mM sodium orthovanadate for 15 minutes on ice. Cell lysates were pelleted and the supernatant containing soluble proteins removed.
Samples were normalized to protein concentration using the BCA Protein Assay Kit (Pierce). […]

[4] = system: caN1/CSL-activated transcription; test: Transient transfection assay of CSL-regulated transcription (Example 1); assay type: cell-based, murine; conditions: exogenous FGF1 1-10 ng/ml; caN1 transfectants
Protocol: NIH 3T3 cells were plated onto fibronectin-coated (10 μg/cm2) 12-well tissue culture dishes and transiently transfected at approximately 80% confluency with 500 ng of a Luciferase construct activated by 4 tandem copies of the CSL (CBF1) response element (Hsieh et al. 1996, Mol. Cell. Biol. 16: 952-959), 100 ng of the TK Renilla (Promega) construct as an internal control for transfection efficiency, and 500 ng of either vector control, sJ1 or caN1 constructs using Fugene 6 (Roche) per manufacturer's instructions. For analysis of caN1 activity in the background of NIH 3T3 stable lines, vector control, caN1, sJ1 and hst-β(FGF4):FGF1 stable transfectants were plated onto fibronectin-coated (10 μg/cm2) 12-well tissue culture dishes and transiently transfected with 500 ng of the CSL-Luciferase construct, 100 ng of the TK Renilla (Promega) construct as an internal control for transfection efficiency, and 200 ng of caN1. […] The cells were harvested 48 hours after the media change and Luciferase/Renilla activity was measured using Promega's Dual-Luciferase Reporter Assay System. The efficiency of transcription was measured and normalized in relationship to the activity of pRL-TK Renilla and the activity is reported as the ratio of Luciferase/Renilla activity. […]

[5] = system: CSL1-dependent transcription; test: Dual luciferase reporter assay of CSL1-dependent transcription (Example 2); assay type: cell-based, murine
Protocol: Insert-less vector control and sJ1 NIH 3T3 cell transfectants (approximately 3×10^4) were plated on fibronectin-coated (10 μg/cm^2) cell culture dishes and the cells were transiently transfected at approximately 50% confluency with 500 ng of a luciferase construct containing four tandem copies of the CBF1 response element (Small et al., 2001, J. Biol. Chem. 276:32022-32030).
Cotransfection with 100 ng of the TK Renilla (Promega) construct was used as an internal control for transfection efficiency using Fugene 6 (Roche), according to the manufacturer's instructions. Cells were treated with or without 10, […] hours after transfection, harvested 48 hours after the transfection and luciferase/renilla activity measured using the Dual Luciferase Reporter Assay System (Promega). Each experiment was performed in triplicate.

[6] = biological target: FGFR1 (mouse) (UniProt P16092); test: cell-based or functional assay
[7] = biological target: Notch receptor; test: cell-based or functional assay
[8] = system: in vitro translation product of the Delta1 transcript
[9] = system: full-length human Jagged1, in vitro translation product
[10] = biological target: full-length human Jagged1 on NIH 3T3 cell transfectants (human) (UniProt P78504); test: cell-based or functional assay
Chain of full-length human Jagged1 on NIH 3T3 cell transfectants (human) (P78504 34-1218 A1171G limits assumed): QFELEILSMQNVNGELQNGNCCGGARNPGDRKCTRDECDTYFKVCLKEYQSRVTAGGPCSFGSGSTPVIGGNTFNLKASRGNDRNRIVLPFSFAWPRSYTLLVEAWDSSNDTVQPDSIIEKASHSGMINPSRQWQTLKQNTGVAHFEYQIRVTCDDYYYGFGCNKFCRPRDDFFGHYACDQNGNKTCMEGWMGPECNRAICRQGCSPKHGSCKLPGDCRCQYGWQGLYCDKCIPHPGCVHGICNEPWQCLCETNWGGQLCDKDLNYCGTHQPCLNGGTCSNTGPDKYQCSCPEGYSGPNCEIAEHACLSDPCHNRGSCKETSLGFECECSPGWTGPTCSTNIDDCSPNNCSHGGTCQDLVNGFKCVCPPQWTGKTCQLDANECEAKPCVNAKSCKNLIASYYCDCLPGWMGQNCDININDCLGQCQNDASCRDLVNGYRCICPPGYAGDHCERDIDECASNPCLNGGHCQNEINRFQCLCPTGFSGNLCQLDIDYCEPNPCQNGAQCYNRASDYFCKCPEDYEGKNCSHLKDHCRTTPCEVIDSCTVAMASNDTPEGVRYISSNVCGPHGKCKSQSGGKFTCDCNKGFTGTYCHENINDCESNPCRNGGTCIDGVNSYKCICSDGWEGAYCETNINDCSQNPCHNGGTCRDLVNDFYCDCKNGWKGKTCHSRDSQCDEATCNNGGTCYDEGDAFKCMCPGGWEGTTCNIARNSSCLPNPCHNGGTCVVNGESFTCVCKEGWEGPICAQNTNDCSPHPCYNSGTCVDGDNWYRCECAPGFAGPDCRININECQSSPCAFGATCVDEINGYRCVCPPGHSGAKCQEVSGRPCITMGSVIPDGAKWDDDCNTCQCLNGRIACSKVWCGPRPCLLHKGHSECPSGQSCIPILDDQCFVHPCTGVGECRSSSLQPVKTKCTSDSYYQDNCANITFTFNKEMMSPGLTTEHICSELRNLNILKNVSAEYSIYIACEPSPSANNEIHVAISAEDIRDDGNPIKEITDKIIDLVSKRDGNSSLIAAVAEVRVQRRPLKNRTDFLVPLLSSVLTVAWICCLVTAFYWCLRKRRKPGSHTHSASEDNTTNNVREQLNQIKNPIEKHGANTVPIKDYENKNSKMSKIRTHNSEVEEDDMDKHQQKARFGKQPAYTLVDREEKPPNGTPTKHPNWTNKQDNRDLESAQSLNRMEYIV

Chain of FGFR1 (mouse) (P16092 22-822): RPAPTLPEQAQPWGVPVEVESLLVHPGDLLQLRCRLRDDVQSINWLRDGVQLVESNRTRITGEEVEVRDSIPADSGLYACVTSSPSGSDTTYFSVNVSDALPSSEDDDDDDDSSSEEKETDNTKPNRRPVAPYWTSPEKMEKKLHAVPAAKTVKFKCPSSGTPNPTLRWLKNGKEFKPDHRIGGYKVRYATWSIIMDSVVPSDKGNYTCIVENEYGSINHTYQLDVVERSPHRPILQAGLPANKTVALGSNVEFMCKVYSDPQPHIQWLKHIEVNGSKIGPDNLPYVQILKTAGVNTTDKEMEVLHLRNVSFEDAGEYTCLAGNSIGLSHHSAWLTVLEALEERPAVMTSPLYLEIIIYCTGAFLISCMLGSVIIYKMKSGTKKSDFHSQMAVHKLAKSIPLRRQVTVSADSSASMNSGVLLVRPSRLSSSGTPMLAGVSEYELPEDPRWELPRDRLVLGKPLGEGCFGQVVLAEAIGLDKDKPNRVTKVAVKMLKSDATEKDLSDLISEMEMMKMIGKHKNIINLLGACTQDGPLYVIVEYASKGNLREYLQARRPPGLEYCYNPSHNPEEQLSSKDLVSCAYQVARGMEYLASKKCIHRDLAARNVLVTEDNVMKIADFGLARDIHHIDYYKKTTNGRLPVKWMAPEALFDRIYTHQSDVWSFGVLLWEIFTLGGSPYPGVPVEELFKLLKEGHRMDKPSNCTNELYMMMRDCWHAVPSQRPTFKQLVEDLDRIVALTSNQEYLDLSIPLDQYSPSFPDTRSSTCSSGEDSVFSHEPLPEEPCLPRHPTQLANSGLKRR

COc1cc(OC)cc(-c2cc3cnc(N)nc3nc2NC(=O)NC(C)(C)C)c1 [PD166866]
effect on FGF1-induced spheroid formation ([1]; 1 μM PD166866, sJ1, dnN1 and hst-β(FGF4):FGF1 transfectants): completely abolished FGF1-induced spheroid formation | effect on anchorage-independent growth of sDl1 NIH 3T3 cell transfectants [2]: completely inhibited | effect on colony formation in caRas cells ([2]; 1 μM): had no effect on colony formation in the caRas cells | effect on colony growth of sJ1 and dnN1 in the absence of FGF1 ([2]; 1 μM): inhibited small colony growth | effect on FGF1-mediated colony formation ([2]; 1 μM, sJ1, dnN1 and hst-β(FGF4):FGF1 transfectants): substantially reduced FGF1-mediated colony formation

FGF1: recombinant human FGF1 (acidic FGF)
effect on Jagged1 expression [3]: increased Jagged1 expression in all stable lines examined | effect on caN1/CSL transcription [4]: repressed caN1/CSL transcription in a dose-dependent fashion | spheroid formation in Notch-repressed (sJ1, dnN1) NIH 3T3 cells ([1]; 10 ng/ml recombinant FGF1 and 10 U/ml heparin): formed multicellular, spheroid-like structures | CSL1-dependent transcription, level relative to control ([5]; thrombin on full-length Jagged1 NIH 3T3 transfectants, sJ1 expression, 10 ng/ml exogenous FGF1): approximately 25 % of the control level | effect on colonies formed by sJ1 and dnN1 transfectants ([2]; 10 ng/ml FGF1 in growth media): greatly exaggerated the size of the colonies

heparin [reference compound]
effect of heparin on thrombin-dependent repression of CSL1-dependent transcription ([5]; heparin 5 units/ml with thrombin 10 μg/ml, full-length Jagged1 NIH 3T3 transfectants): able to potentiate the thrombin-dependent repression of CSL1-dependent transcription | effect of heparin on CSL1-dependent transcription ([5]; heparin by itself or with 10 μM TRAP): ineffective in altering CSL1-dependent transcription

recombinant FGF1 (from UniProt P05230 16-155) (ligand)
DNA synthesis ((3H)-thymidine-labelled nuclei) in Swiss 3T3 cells expressing dnFGFR1 [6]: 70 % reduction

soluble Jagged1 (sJ1) (from UniProt P78504 34-1067) (ligand)
CSL1-dependent transcription (dual luciferase reporter) (% of the control level) [7]: 25

α-thrombin
proteolytic cleavage of the in vitro translation product [8]: thrombin was unable to proteolytically modify the in vitro translation product of the Delta1 transcript | proteolytic cleavage of in vitro translated (35S)-labelled Jagged1, SDS-PAGE and autoradiography [9]: cleavage of the full-length Jagged1 protein into 39 kDa and 95 kDa fragments

α-thrombin (enzyme)
CSL1-dependent transcription (dual luciferase reporter) in full-length Jagged1 NIH 3T3 cell transfectants (% of the control level) [10]: 75
